One may read the IC50 as the concentration that inhibits the measured activity by half.

This experiment deals with T1, PI3Kγ (Homo sapiens, UniProt P48736).
T1 construct: HA; made in house; host or cells: Spodoptera frugiperda (Sf9) cells, baculovirus coinfection
T1 sequence (P48736 whole entry, species assumed): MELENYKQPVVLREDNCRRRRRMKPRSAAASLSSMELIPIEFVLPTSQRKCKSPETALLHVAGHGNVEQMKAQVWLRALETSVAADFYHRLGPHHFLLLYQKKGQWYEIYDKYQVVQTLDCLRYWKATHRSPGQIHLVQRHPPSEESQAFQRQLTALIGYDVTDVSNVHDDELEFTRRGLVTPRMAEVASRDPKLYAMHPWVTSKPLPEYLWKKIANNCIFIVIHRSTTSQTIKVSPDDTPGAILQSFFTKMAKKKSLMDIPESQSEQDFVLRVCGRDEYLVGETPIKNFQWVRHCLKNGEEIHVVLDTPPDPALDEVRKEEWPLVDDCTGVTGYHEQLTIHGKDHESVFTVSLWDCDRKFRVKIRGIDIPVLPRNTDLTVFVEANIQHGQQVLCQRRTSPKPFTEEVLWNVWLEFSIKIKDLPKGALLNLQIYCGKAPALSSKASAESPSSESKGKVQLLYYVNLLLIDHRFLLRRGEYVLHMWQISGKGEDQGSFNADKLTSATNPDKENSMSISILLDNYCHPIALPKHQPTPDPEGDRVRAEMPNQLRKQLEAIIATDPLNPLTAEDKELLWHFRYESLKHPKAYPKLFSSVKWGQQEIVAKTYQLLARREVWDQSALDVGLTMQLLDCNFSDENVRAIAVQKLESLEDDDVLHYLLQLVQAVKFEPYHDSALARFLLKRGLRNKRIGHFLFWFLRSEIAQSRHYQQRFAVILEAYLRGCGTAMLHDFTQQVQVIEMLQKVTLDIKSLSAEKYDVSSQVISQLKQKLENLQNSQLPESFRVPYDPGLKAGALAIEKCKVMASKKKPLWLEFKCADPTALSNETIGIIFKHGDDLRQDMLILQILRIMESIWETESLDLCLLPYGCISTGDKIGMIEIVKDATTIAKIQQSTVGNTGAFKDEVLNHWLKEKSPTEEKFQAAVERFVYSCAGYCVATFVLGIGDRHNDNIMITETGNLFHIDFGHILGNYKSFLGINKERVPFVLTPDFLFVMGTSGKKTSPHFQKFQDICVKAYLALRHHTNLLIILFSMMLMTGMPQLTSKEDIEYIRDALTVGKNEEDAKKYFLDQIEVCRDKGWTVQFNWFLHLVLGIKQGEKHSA
T1 sequence (Q8WYR1 whole entry partner, species assumed): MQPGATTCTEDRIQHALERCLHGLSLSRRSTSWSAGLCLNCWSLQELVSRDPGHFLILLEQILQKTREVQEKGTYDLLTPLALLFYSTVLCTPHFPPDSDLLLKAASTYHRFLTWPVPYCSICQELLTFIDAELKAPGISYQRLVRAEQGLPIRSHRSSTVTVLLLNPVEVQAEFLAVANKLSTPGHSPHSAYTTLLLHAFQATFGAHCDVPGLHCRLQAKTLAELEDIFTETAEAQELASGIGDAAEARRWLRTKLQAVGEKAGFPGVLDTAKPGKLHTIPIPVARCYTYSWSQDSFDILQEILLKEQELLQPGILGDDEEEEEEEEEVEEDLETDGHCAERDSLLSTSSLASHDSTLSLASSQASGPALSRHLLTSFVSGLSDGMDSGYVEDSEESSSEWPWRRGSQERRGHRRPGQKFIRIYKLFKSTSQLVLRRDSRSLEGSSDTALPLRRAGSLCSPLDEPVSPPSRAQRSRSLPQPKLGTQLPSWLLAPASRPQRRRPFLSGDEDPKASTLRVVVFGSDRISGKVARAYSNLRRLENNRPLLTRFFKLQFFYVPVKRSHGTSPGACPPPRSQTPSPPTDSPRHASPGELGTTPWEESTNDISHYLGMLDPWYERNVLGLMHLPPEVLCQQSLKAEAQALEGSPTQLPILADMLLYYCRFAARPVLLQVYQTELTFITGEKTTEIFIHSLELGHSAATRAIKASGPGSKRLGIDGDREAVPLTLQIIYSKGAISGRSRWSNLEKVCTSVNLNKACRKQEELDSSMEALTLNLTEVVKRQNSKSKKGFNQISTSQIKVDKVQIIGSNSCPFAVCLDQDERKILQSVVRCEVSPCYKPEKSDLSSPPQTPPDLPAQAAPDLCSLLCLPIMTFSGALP
The experiment is described as follows: PI3Kγ in vitro kinase assay (32P-ATP, PIP2 lipid micelles, filter plate). Conditions: purified recombinant p101/p110γ protein with G protein β1/γ2 subunits; 20 μM ATP; 25 μM PIP2; 20 minutes at room temperature. The format is biochemical. As for the experimental part:
Spodtera frugiperda cells, grown in ESF921 media, were coinfected with baculovirus expressing a glu-tagged p101 and baculovirus expressing an HA-tagged p110γ, at a 3:1 ratio of p101 baculovirus to p110γ baculovirus. Sf9 cells were grown to 1×10^7 total cells/mL in 10 L bioreactors and harvested 48-72 hours post infection. Samples of infected cells were then tested for expression of p101/p110γ PI3 kinase by immunoprecipitation and Western Blot analysis methods (see below). To purify PI3Kγ, 4 volumes of room temperature hypotonic lysis buffer (1 mM MgCl2, 1 mM DTT, 5 mM EGTA, 1 mM Pefabloc, 0.5 μM aprotinin, 5 μM leupeptin, 2 μM pepstatin, 5 μM E64, pH 8) per gram of cell paste, was poured onto frozen cell pellets with stirring, then lysed in a nitrogen “bomb” at 400 psi (599HC […], Parr Instrument Co, Moline, Ill.). NaCl was added to 150 mM, and sodium cholate was added to 1% and mixed for another 45 minutes. The lysates were clarified by centrifugation for 25 minutes at 14,000 rpm. The lysates were then loaded over anti-glu-linked Protein-G Sepaharose beads (Covance Research Products, Richmond, Calif.) using 20 mL resin/50 g cell paste. The column was washed with 15 volumes of wash buffer (1 mM DTT, 0.2 mM EGTA, 1 mM Pefabloc, 0.5 μM aprotinin, 5 μM leupeptin, 2 μM pepstatin, 5 μM E64, 150 mM NaCl, 1% sodium cholate, pH 8). PI3Kγ was eluted with 6 column volumes of wash buffer that contain 100 μg/mL of a peptide that competes for binding of the glu tag. The column fractions with the eluted protein (determined by taking OD280 readings) were collected and dialyzed in 0.2 mM EGTA, 1 mM DTT, 1 mM Pefabloc, 5 μM leupeptin, 0.5% sodium cholate, 150 mM NaCl, and 50% glycerol, pH 8. The fractions were stored at -80° C. until further use. Spodtera frugiperda cells were coinfected with baculovirus expressing a glu-tagged G protein β1 and baculovirus expressing a […], at a 1:1 ratio of glu-tagged G protein β1 baculovirus to G protein β2 baculovirus. Sf9 cells are grown in 10 L bioreactors and harvested 48-72 hours post infection. Samples of infected cells were tested for G protein β1/β2 expression by Western Blot analysis, as described below. Cell lysates were homogenized and loaded onto a column of glu-tagged beads as in Biological Example 1 and competed off the column with a glu peptide and processed as described in Biological Example 1. The inhibitory properties of the compounds in Table 1 were assayed in an in vitro PI3K assay. In a 96-well polypropylene plate, each well was spotted with […] of 50 times the desired final concentration of compound in DMSO. Purified recombinant p101/p110γ protein (0.03 μg; 2.7 nM) and G protein β1/γ2 subunits (0.09 μg; 57.7 nM) for each reaction was combined in the assay buffer (30 mM HEPES, 100 mM NaCl, 1 mM EGTA, and 1 mM DTT). ATP and [γ-^32P-ATP] (0.09 μCi) were added to this mixture so that the final ATP concentration in the reaction was 20 μM. Lipid micelles were formed by sonicating phosphatidylinositol4,5-diphosphate (PIP2), phosphatidylethanolamine (PE), and Na-cholate in the assay buffer for 10 minutes, adding MgCl2 and incubating on ice for 20 minutes, for final concentrations of 25 μM PIP2, 300 μM PE, 0.02% Na-cholate, and 10 mM MgCl2 in the reaction. The reactions were started by adding equal volumes lipid and enzyme mixture in a total volume of 50 μL, allowed to run for 20 minutes at room temperature, and stopped with 100 μL 75 mM H3PO4. The lipid product was transferred to a glass fiber filter plate and washed with 75 mM H3PO4 several times. The presence of radioactive lipid product (PIP3) was measured by adding Wallac Optiphase mix to each well and counting in a Wallac 1450 Trilux plate reader (PerkinElmer Life Sciences Inc., Boston, Mass. 02118). The IC50 for each compound tested is reported in μM in Table 1: […]
Consider `COC(=O)Cc1ccc(Sc2c(C(=O)Nc3nnn[nH]3)sc3cc(OC)c(C)cc23)cc1` [Example 40, {4-[6-Methoxy-5-methyl-2-(1H-tetrazol-5-ylcarbamoyl)-benzo[b]thiophen-3-ylsulfanyl]-phenyl}-acetic acid methyl ester], for which the IC50 is 1260 nM.

As to `COC(=O)CCc1ccc(Sc2c(C(=O)Nc3nnn[nH]3)sc3cc(OC)c(C)cc23)cc1` [Example 41, 3-{4-[6-Methoxy-5-methyl-2-(1H-tetrazol-5-ylcarbamoyl)-benzo[b]thiophen-3-ylsulfanyl]-phenyl}-propionic acid methyl ester], the IC50 worked out at 4080 nM.

In the case of `COc1cc2sc(C(=O)Nc3nnn[nH]3)c(Sc3cccc(C(F)(F)F)c3)c2cc1C` [Example 42, 6-Methoxy-5-methyl-3-(3-trifluoromethyl-phenylsulfanyl)-benzo[b]thiophene-2-carboxylic acid(1H-tetrazol-5-yl)-amide], the IC50 turned out to be 2170 nM.

With `COc1cc2sc(C(=O)Nc3nnn[nH]3)c(SC(c3ccccc3)C(C)N(C)C(C)=O)c2cc1C` (stereo not drawn) [Example 44, 3-[2-(Acetyl-methyl-amino)-1-phenyl-propylsulfanyl]-6-methoxy-5-methyl-benzo[b]thiophene-2-carboxylic acid(1H-tetrazol-5-yl)-amide], the IC50 was determined as 2780 nM.

As for `COc1cc2sc(C(=O)Nc3nnn[nH]3)c(Sc3cccc(Cl)c3)c2cc1C` [Example 45, 3-(3-Chloro-phenylsulfanyl)-6-methoxy-5-methyl-benzo[b]thiophene-2-carboxylic acid(1H-tetrazol-5-yl)-amide], the IC50 is 465 nM.

On to `COc1cccc(Sc2c(C(=O)Nc3nnn[nH]3)sc3cc(OC)c(C)cc23)c1` [Example 46, 6-Methoxy-3-(3-methoxy-phenylsulfanyl)-5-methyl-benzo[b]thiophene-2-carboxylic acid(1H-tetrazol-5-yl)-amide], for which the IC50 stood at 600 nM.

Take `COc1cc2sc(C(=O)Nc3nnn[nH]3)c(Sc3ccc(C(C)C)cc3)c2cc1C` [Example 47, 3-(4-Isopropyl-phenylsulfanyl)-6-methoxy-5-methyl-benzo[b]thiophene-2-carboxylic acid(1H-tetrazol-5-yl)-amide]: the IC50 amounted to 3130 nM.

Consider `COC(=O)Cc1ccc(Sc2c(C(=O)Nc3nnn[nH]3)sc3cc(OC)c(OC)cc23)cc1` [Example 49, {4-[5,6-Dimethoxy-2-(1H-tetrazol-5-ylcarbamoyl)-benzo[b]thiophen-3-ylsulfanyl]-phenyl}-acetic acid methyl ester], for which the concentration for half-maximal inhibition (IC50) was 1290 nM.

Turning to `COc1cc2sc(C(=O)Nc3nnn[nH]3)c(Sc3cccc(C(F)(F)F)c3)c2cc1OC` [Example 50, 5,6-Dimethoxy-3-(3-trifluoromethyl-phenylsulfanyl)-benzo[b]thiophene-2-carboxylic acid(1H-tetrazol-5-yl)-amide], the half-inhibitory concentration (IC50) was determined as 3380 nM.

On to `COc1cccc(Sc2c(C(=O)Nc3nnn[nH]3)sc3cc(OC)c(OC)cc23)c1` [Example 51, 5,6-Dimethoxy-3-(3-methoxy-phenylsulfanyl)-benzo[b]thiophene-2-carboxylic acid(1H-tetrazol-5-yl)-amide], for which the IC50 was determined as 438 nM.

Take `COc1cc2c(Sc3ccc(N(C)C)cc3)c(C(=O)Nc3nnn[nH]3)sc2cc1C` [Example 53, 3-(4-Dimethylamino-phenylsulfanyl)-5-methoxy-6-methyl-benzo[b]thiophene-2-carboxylic acid(1H-tetrazol-5-yl)-amide]: the IC50 was 390 nM.

On to `COc1cc2c(SCCc3ccccc3)c(C(=O)Nc3nnn[nH]3)sc2cc1C` [Example 54], for which the IC50 amounted to 50 nM.

Regarding `COc1cc2c(Sc3ccc(C(=O)O)cc3)c(C(=O)Nc3nnn[nH]3)sc2cc1C` [Example 55, 4-[5-Methoxy-6-methyl-2-(1H-tetrazol-5-ylcarbamoyl)-benzo[b]thiophen-3-ylsulfanyl]-benzoic acid], the IC50 is 265 nM.

Regarding `COc1cc2c(Sc3ccc(CC(=O)O)cc3)c(C(=O)Nc3nnn[nH]3)sc2cc1C` [Example 56, {4-[5-Methoxy-6-methyl-2-(1H-tetrazol-5-ylcarbamoyl)-benzo[b]thiophen-3-ylsulfanyl]-phenyl}-acetic acid], the IC50 stood at 115 nM.

As to `COc1cc2c(Sc3ccc(CCC(=O)O)cc3)c(C(=O)Nc3nnn[nH]3)sc2cc1C` [Example 57, 3-{4-[5-Methoxy-6-methyl-2-(1H-tetrazol-5-ylcarbamoyl)-benzo[b]thiophen-3-ylsulfanyl]-phenyl}-propionic acid], the IC50 amounted to 575 nM.

For `COc1cc2sc(C(=O)Nc3nnn[nH]3)c(Sc3ccc(C(=O)O)cc3)c2cc1C` [Example 58, 4-[6-Methoxy-5-methyl-2-(1H-tetrazol-5-ylcarbamoyl)-benzo[b]thiophen-3-ylsulfanyl]-benzoic acid], the IC50 was determined as 1340 nM.

For the compound `COc1cc2sc(C(=O)Nc3nnn[nH]3)c(Sc3ccc(CC(=O)O)cc3)c2cc1C` [Example 59, {4-[6-Methoxy-5-methyl-2-(1H-tetrazol-5-ylcarbamoyl)-benzo[b]thiophen-3-ylsulfanyl]-phenyl}-acetic acid], the IC50 was 1320 nM.

As to `COc1cc2sc(C(=O)Nc3nnn[nH]3)c(SCc3ccc(C(=O)O)cc3)c2cc1C` [Example 60, 4-[6-Methoxy-5-methyl-2-(1H-tetrazol-5-ylcarbamoyl)-benzo[b]thiophen-3-ylsulfanylmethyl]-benzoic acid], the IC50 worked out at 495 nM.

As to `COc1cc2sc(C(=O)Nc3nnn[nH]3)c(Sc3ccc(CC(=O)O)cc3)c2cc1OC` [Example 61, {4-[5,6-Dimethoxy-2-(1H-tetrazol-5-ylcarbamoyl)-benzo[b]thiophen-3-ylsulfanyl]-phenyl}-acetic acid], the IC50 is 2610 nM.

Regarding `COc1cc2sc(C(=O)Nc3nnn[nH]3)c(Sc3ccc(CCC(=O)O)cc3)c2cc1OC` [Example 62, 3-{4-[5,6-Dimethoxy-2-(1H-tetrazol-5-ylcarbamoyl)-benzo[b]thiophen-3-ylsulfanyl]-phenyl}-propionic acid], the IC50 amounted to 2670 nM.

Regarding `CCOc1ccc2sc(C(=O)Nc3nnn[nH]3)c(Sc3ccc(CC(=O)O)cc3)c2c1` [Example 63, {4-[5-Ethoxy-2-(1H-tetrazol-5-ylcarbamoyl)-benzo[b]thiophen-3-ylsulfanyl]-phenyl}-acetic acid], the IC50 came to 2710 nM.

On to `CCOc1ccc2sc(C(=O)Nc3nnn[nH]3)c(Sc3ccc(CCC(=O)O)cc3)c2c1` [Example 64, 3-{4-[5-Ethoxy-2-(1H-tetrazol-5-ylcarbamoyl)-benzo[b]thiophen-3-ylsulfanyl]-phenyl}-propionic acid], for which the IC50 stood at 3620 nM.

`COCc1cc2sc(C(=O)Nc3nnn[nH]3)c(Sc3ccccc3)c2cc1OC` [Example 65, 5-Methoxy-6-methoxymethyl-3-phenylsulfanyl-benzo[b]thiophene-2-carboxylic acid(1H-tetrazol-5-yl)-amide]: the IC50 was determined as 315 nM.

Turning to `COc1cc2sc(C(=O)Nc3nn[nH]n3)c(SCc3ccc(C#N)cc3)c2cc1OC` [Example 66, 3-(4-Cyano-benzylsulfanyl)-5,6-dimethoxy-benzo[b]thiophene-2-carboxylic acid(2H-tetrazol-5-yl)-amide], the IC50 amounted to 1170 nM.

The values above are taken from US20040248953A1, “3-Arylsulfanyl and 3-heteroarylsulfanyl substituted benzo[b]thiophenes as therapeutic agents” (priority 2003, published 2004).
